Source: US20250367173A1, “ECTONUCLEOTIDE PYROPHOSPHATASE-PHOSPHODIESTERASE-1 INHIBITORS AND PHARMACEUTICAL COMPOSITIONS COMPRISING THE SAME” (LigaChem Biosciences Inc., priority 2022, published 2025)

Assays:
[1] = target: T1, ENPP-1 (Homo sapiens, UniProt P22413); assay: ENPP-1 enzyme assay with cGAMP substrate; format: biochemical; settings: 200 pM ENPP-1, 10 μM substrate 2′3′-cGAMP, pH 7.4, 37° C., 30 minutes, Transcreener AMP2/GMP2 kit; average IC50
T1 construct: purchased Biovendor RD172124100
T1 sequence (P22413 1-925): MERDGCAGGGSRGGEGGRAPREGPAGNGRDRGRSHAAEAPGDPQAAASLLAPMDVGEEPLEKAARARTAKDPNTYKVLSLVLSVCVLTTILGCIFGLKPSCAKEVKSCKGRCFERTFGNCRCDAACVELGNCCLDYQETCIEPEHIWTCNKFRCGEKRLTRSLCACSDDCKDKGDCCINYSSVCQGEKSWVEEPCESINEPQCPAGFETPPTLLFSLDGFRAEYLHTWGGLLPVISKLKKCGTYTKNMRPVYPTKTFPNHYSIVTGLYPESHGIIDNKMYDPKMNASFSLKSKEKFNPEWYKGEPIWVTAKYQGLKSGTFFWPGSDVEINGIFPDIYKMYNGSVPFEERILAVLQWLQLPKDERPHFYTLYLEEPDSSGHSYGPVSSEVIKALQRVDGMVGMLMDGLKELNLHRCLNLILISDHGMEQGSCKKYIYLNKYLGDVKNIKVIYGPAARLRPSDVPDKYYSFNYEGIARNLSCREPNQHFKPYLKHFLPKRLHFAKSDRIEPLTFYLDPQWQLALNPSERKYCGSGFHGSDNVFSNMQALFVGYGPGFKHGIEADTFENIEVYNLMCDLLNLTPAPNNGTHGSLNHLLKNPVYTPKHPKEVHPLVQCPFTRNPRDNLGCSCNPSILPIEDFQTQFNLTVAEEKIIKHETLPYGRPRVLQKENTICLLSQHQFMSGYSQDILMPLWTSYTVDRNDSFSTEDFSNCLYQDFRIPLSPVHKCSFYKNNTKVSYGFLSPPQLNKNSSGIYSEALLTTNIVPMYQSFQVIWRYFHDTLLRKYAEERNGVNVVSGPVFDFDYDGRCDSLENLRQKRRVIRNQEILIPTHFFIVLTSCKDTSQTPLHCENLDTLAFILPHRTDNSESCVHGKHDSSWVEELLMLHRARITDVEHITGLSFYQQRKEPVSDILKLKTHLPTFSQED
Procedure: 2′3′-cGAMP is a natural substrate specifically hydrolyzed by ENPP-1, and produces 5′-adenosine monophosphate (AMP) and 5′-guanosine monophosphate (GMP). AMP and GMP produced from the reaction are monitored for ENPP-1 enzyme activity through an AMP^2/GMP^2 ENPP-1 Assay kit (Bellbrook Labs, catalog number 3015).
First, the reaction mixture contains 25 mM Tris-HCl (pH 7.4), 5 mM MgCl2, 0.01% Brij-35, and 1% DMSO. Serially diluted ENPP-1 inhibitors (test compound concentrations ranging from 10 μM to 0.5 nM) are reacted with 200 pM ENPP-1 (Biovendor, catalog number RD172124100) and 10 μM substrate 2′3′-cGAMP at 37° C. for 30 minutes. All assays include a DMSO control without ENPP-1 inhibitor that provides maximal AMP and GMP production. After 30 minutes of this reaction, AMP and GMP production is detected as a measure of ENPP-1 enzymatic activity using the Transcreener® AMP^2/GMP^2 ENPP-1 Assay kit. The detection reagent is a reagent containing 16 nM AMP^2/GMP^2 Antibody-Tb, 25 mM Tris-HCl and 60.1 nM AMP/GMP HiLyte647 Tracer, which is added by 5 μl, mixed well, and incubated at 25° C. for 2 hours.
(§1) The […] signal is measured using a SPARK Cyto plate reader (Tecan). Inhibition (%) is calculated using the following formula: (Max 615:665 ratio-615:665 ratio)/Max 615:665 ratio×100%. % residual ENPP-1 enzyme activity versus IC50 values for ENPP-1 inhibitor concentrations were determined by fitting inhibition curves using the 4-parameter method of GraphPad Prism® software [GraphPad version 9.3.1 for Windows, GraphPad Software, La Jolla California USA, www.graphpad.com].

[2] = target: T1, ENPP-1; assay: ENPP-1 enzyme assay with pNP-TMP substrate; format: biochemical; settings: 12.5 ng ENPP-1, 720 μM substrate pNP-TMP, pH 9.0, 37° C., 60 minutes, absorbance 405 nm; average IC50
Procedure: In order to measure the ENPP-1 inhibitory activity of the compounds according to the present disclosure, the following tests were performed.
ENPP-1 hydrolyzes a variety of substrates, including phosphodiester bonds of nucleotides and nucleotide sugars and pyrophosphate bonds of nucleotides and nucleotide sugars. p-Nitrophenyl 5′-thymidine monophosphate (p-Nph-5′-TMP) is an artificial substrate for 5′-adenosine monophosphate (AMP), which is hydrolyzed by the human recombinant ENPP-1 enzyme. In the above reaction, ENPP-1 enzymatic activity is monitored through the formation of yellow p-nitrophenolate, which absorbs at 405 nm.
First, the reaction mixture contains 100 mM Tris-HCl (pH 9.0), 150 mM NaCl, […], and 1% DMSO. Serially diluted ENPP-1 inhibitors (test compound concentrations ranging from 10 μM to 0.5 nM) are reacted with 12.5 ng of ENPP-1 (Biovendor, catalog number RD172124100) and 720 μM substrate pNP-TMP at 37° C. for 60 minutes. All assays include a DMSO control without ENPP-1 inhibitor that gives maximum absorbance.
as §1, with “After 60 minutes of this reaction, the” for “The”, “an Epoch™ Microplate Spectrophotometer (BioTek Instruments Inc.).” for “a SPARK Cyto plate reader (Tecan).”, “Sample OD405 nm/Max OD405 nm×100%.” for “(Max 615:665 ratio-615:665 ratio)/Max 615:665 ratio×100%.”

| Compound | IC50 [1] | IC50 [2] |
| --- | --- | --- |
| COc1ccc2c(c1)c1ncccc1n2Cc1ccc(S(C)(=N)=O)cc1 (single isomer, unassigned) [Compound 10a, imino (4-((8-methoxy-5H-pyrido[3,2-b]indol-5-yl)methyl)phenyl)(methyl)-l6-sulfanone] | < 1 µM | < 1 µM |
| COc1ccc2c(c1)c1ncccc1n2Cc1ccc(S(C)(=N)=O)cc1 (single isomer, unassigned) [Compound 10b, imino (4-((8-methoxy-5H-pyrido[3,2-b]indol-5-yl)methyl)phenyl)(methyl)-l6-sulfanone] |  | < 1 µM |
| COc1cc2c3ncccc3n(Cc3ccc(S(C)(=N)=O)cc3)c2cc1F (single isomer, unassigned) [Compound 30a, (4-((7-fluoro-8-methoxy-5H-pyrido[3,2-b]indol-5-yl)methyl)phenyl)(imino)(methyl)-l6-sulfanone] | < 1 µM | < 1 µM |
| COc1cc2c3ncccc3n(Cc3ccc(S(C)(=N)=O)cc3)c2cc1F (single isomer, unassigned) [Compound 30b, (4-((7-fluoro-8-methoxy-5H-pyrido[3,2-b]indol-5-yl)methyl)phenyl)(imino)(methyl)-l6-sulfanone] |  | < 1 µM |
| COc1cc2c3ncccc3n(Cc3ccc(S(=N)(=O)C4CC4)cc3)c2cc1F (single isomer, unassigned) [Compound 56a, cyclopropyl (4-((7-fluoro-8-methoxy-5H-pyrido[3,2-b]indol-5-yl)methyl)phenyl) (imino)-l6-sulfanone] |  | < 1 µM |
| COc1cc2c3ncccc3n(Cc3ccc(S(=N)(=O)C4CC4)cc3)c2cc1F (single isomer, unassigned) [Compound 56b, cyclopropyl (4-((7-fluoro-8-methoxy-5H-pyrido[3,2-b]indol-5-yl)methyl)phenyl) (imino)-l6-sulfanone] | < 1 µM |  |
| CS(=N)(=O)c1ccc(Cn2c3ccccc3c3ccncc32)cc1 (stereo not drawn) [Compound 1, (4-((9H-pyrido[3,4-b]indol-9-yl)methyl)phenyl)(imino)(methyl)-l6-sulfanone] | 1 to 10 µM | < 1 µM |
| COc1ccc2c(c1)c1ccncc1n2Cc1ccc(S(N)(=O)=O)cc1 [Compound 2, 4-((6-methoxy-9H-pyrido[3,4-b]indol-9-yl)methyl)benzenesulfonamide] | < 1 µM | < 1 µM |
| COc1ccc2c(c1)c1ccncc1n2Cc1ccc(S(C)(=N)=O)cc1 (stereo not drawn) [Compound 3, imino (4-((6-methoxy-9H-pyrido[3,4-b]indol-9-yl)methyl)phenyl)(methyl)-l6-sulfanone] | < 1 µM | < 1 µM |
| COc1ccc2c(c1)c1cnccc1n2Cc1ccc(S(N)(=O)=O)cc1 [Compound 4, 4-((8-methoxy-5H-pyrido[4,3-b]indol-5-yl)methyl)benzenesulfonamide] | < 1 µM | < 1 µM |
| COc1ccc2c(c1)c1ncccc1n2Cc1ccc(S(N)(=O)=O)cc1 [Compound 5, 4-((8-methoxy-5H-pyrido[3,2-b]indol-5-yl)methyl)benzenesulfonamide] | < 1 µM | < 1 µM |
| COc1ccc2c(c1)c1ncccc1n2CC1CCN(S(N)(=O)=O)CC1 [Compound 6, 4-((8-methoxy-5H-pyrido[3,2-b]indol-5-yl)methyl) piperidine-1-sulfonamide] | < 1 µM | < 1 µM |
| CNS(=O)(=O)c1ccc(Cn2c3ccc(OC)cc3c3ncccc32)cc1 [Compound 7, 4-((8-methoxy-5H-pyrido[3,2-b]indol-5-yl)methyl)-N-methylbenzenesulfonamide] | > 10 µM | 1 to 10 µM |
| COc1ccc2c(c1)c1ncccc1n2Cc1ccc(NS(N)(=O)=O)cc1 [Compound 8, N-(4-((8-methoxy-5H-pyrido[3,2-b]indol-5-yl)methyl)phenyl) sulfamide] | < 1 µM | < 1 µM |
| COc1ccc2c(c1)c1ncccc1n2CCc1ccc(S(N)(=O)=O)cc1 [Compound 9, 4-(2-(8-methoxy-5H-pyrido[3,2-b]indol-5-yl)ethyl)benzenesulfonamide] | > 10 µM | < 1 µM |
| CCS(=N)(=O)c1ccc(Cn2c3ccc(OC)cc3c3ncccc32)cc1 (stereo not drawn) [Compound 11, ethyl (imino) (4-((8-methoxy-5H-pyrido[3,2-b]indol-5-yl)methyl)phenyl)-l6-sulfanone] | < 1 µM | < 1 µM |
| COc1ccc2c(c1)c1ncccc1n2Cc1ccc(S(=N)(=O)Cc2ccccc2)cc1 (stereo not drawn) [Compound 12, benzyl(imino)(4-((8-methoxy-5H-pyrido[3,2-b]indol-5-yl)methyl)phenyl)-l6-sulfanone] | < 1 µM | < 1 µM |
| COc1ccc2c(c1)c1c(n2Cc2ccc(S(N)(=O)=O)cc2)CNC(C)C1 (stereo not drawn) [Compound 33, 4-((6-methoxy-3-methyl-1,2,3,4-tetrahydro-9H-pyrido[3,4-b]indol-9-yl)methyl)benzene sulfonamide] |  | > 10 µM |
| COc1ccc2c(c1)c1c(n2Cc2cccc(S(N)(=O)=O)c2)CCCN1 [Compound 39, 3-((8-methoxy-1,2,3,4-tetrahydro-5H-pyrido[3,2-b]indol-5-yl)methyl)benzenesulfonamide] |  | > 10 µM |
| Cc1ccc2c(c1)c1c(n2Cc2ccc(S(N)(=O)=O)cc2)CCCN1 [Compound 40, 4-((8-methyl-1,2,3,4-tetrahydro-5H-pyrido[3,2-b]indol-5-yl)methyl)benzenesulfonamide] |  | 1 to 10 µM |
| COc1ccc2c(c1)c1cnncc1n2Cc1ccc(S(N)(=O)=O)cc1 [Compound 50, 4-((8-methoxy-5H-pyridazino[4,5-b]indol-5-yl)methyl)benzenesulfonamide] |  | 1 to 10 µM |
| COc1ccc2c(c1F)c1ncccc1n2Cc1ccc(S(N)(=O)=O)cc1 [Compound 54, 4-((9-fluoro-8-methoxy-5H-pyrido[3,2-b]indol-5-yl)methyl)benzenesulfonamide] | < 1 µM |  |
| COc1ccc2c(c1)c1ncccc1n2Cc1ccc(S(C)(=N)=O)cc1C(F)(F)F (stereo not drawn) [Compound 55, imino (4-((8-methoxy-5H-pyrido[3,2-b]indol-5-yl)methyl)-3-(trifluoromethyl)phenyl)(methyl)-l6-sulfanone] |  | > 10 µM |
